Patent publication US20240287093A1, “HIGH ACTIVITY STING PROTEIN AGONIST” (ADLAI NORTYE BIOPHARMA CO., LTD., priority 2018, published 2024)

Assays:
Assay type in all cases: cell-based
STING = biological target: T1, STING (Homo sapiens, UniProt Q86WV6, G230A/H232R/R293Q/R71H); experiment: IFNβ release from THP1 by STING activation (hIFNβ ELISA); conditions: THP1 cells, 24 h, IFN-β in supernatant; inactive = IFNβ not detected at the maximum concentration of compounds
T1 construct: THP1 was purchased from National Collection of Authenticated Cell Cultures (Cat #TCHu 57); host or cells: THP1
Method: Example III: Compound Stimulate THP1 to Release IFNβ by STING Activation
In this assay, activation of STING by compounds was evaluated by detecting their ability to stimulate the secretion of IFN-β (interferon-beta) from THP1. THP1 was purchased from National Collection of Authenticated Cell Cultures (Cat #TCHu 57). The top dose of compounds was setted according to their solubility. First, Compounds were 3 times diluted with medium, 8-dose points in total. The final DMSO concentration was 0.2%. THP1 during the logarithmic phase was resuspended to 2×10^6 cells/ml in assay medium. The THP1-cell suspension was dispensed into a 96-well U bottom plate containing 50 ul of compound diluted in medium. After 24 h incubation at 37° C., 5% CO2, the supernatant was collected. The concentration of IFN-β in the supernatant was measured using a human IFNβ ELISA KIT (R&D, DY814-05). The data was fitted with GraphPad Prism or XLfit to calculate EC50 values.

STING variants (WT) [1] = biological target: T2, STING variants (WT) (Homo sapiens, UniProt Q86WV6); experiment: SEAP reporter assay in HEK-Blue ISG KO-STING cells transfected with STING WT variant (Method 1); conditions: 24 h
T2 construct: host or cells: HEK-Blue ISG KO-STING cells (Invivogen, hkb-kostg)
Description: (§1) Example I: STING Variants (WT & HAQ) Activation by Compounds in HEK-Blue™ ISG KO-STING Cells (Method 1)
(§2) Activation of STING can be determined using a SEAP reporter assay in HEK-Blue™ ISG KO-STING cells (Invivogen, cat #hkb-kostg) transfected with plasmids expressing STING variants (WT & HAQ) (referred to WO2017/175147A1). STING variants (WT & HAQ) vector were constructed based on STING-232H vector (Origene, RC208418). GFP vector (VT2069) was bought from Youbio. The detailed protocol as follows: HEK-Blue™ ISG KO-STING cells were harvest and seeding into 96 well plate, the final cell number was 0.8×10^5 cells/well. Transfections were prepared using Lipofectamine 2000 (Invitrogen, Cat #11668-027) following the manufacturer's instructions (Lipo2000:DNA=1:10), 20 ul of transfection suspension containing 1 ng STING vector was added to cell culture plate and incubated at 37° C., 5% CO2 for 24 h. After 24 hours incubation, compounds were added at proper concentration, and the final DMSO concentration was 0.5%. After 24 h incubation, the supernatant was collected to detect SEAP signal using Great EscAPe SEAP chemiluminescence KIT (Clontech, cat #631738) and cells were collected to detect cell viability using CellTiter-Glo Luminescent Cell Viability Assay (Promega, cat #G7573) following the manufacturer's instructions. The data were described by the ratio of the stimulating signal of compounds to 0.5% DMSO.

STING variants (HAQ) [2] = biological target: T3, STING variants (HAQ) (Homo sapiens, UniProt Q86WV6, G230A/R293Q/R71H); experiment: SEAP reporter assay in HEK-Blue ISG KO-STING cells transfected with STING HAQ variant (Method 1); conditions: 24 h
T3 construct: host or cells: HEK-Blue ISG KO-STING cells (Invivogen, hkb-kostg)
Description: as §1, §2

STING variants (WT) [3] = biological target: T2, STING variants (WT); experiment: SEAP reporter assay in HEK-Blue ISG KO-STING cells transfected with STING WT variant (Method 2, 1 ng vector); conditions: compound concentration 2.5 (mM as printed); 24 h; SEAP signal ratio to 0.5% DMSO
Description: (§3) Example II: STING Variants (WT & HAQ) Activation by Compounds in HEK-Blue™ ISG KO-STING Cells (Method 2)
as §2, with “96 well plate and the final” for “96 well plate, the final”, “1 ng (WT variant) or 0.0625 ng (HAQ variant) STING vector” for “1 ng STING vector”, “proper concentration, the final” for “proper concentration, and the final”, “0.5%. After 24h incubation, the” for “0.5%. After 24 h incubation, the”, “Cell Viability Assay(Promega, cat #G7573)” for “Cell Viability Assay (Promega, cat #G7573)”

STING variants (HAQ) [4] = biological target: T3, STING variants (HAQ); experiment: SEAP reporter assay in HEK-Blue ISG KO-STING cells transfected with STING HAQ variant (Method 2, 0.0625 ng vector); conditions: compound concentration 5 (mM as printed); 24 h; SEAP signal ratio to 0.5% DMSO
Description: as §3
as §2, with “96 well plate and the final” for “96 well plate, the final”, “1 ng (WT variant) or 0.0625 ng (HAQ variant) STING vector” for “1 ng STING vector”, “proper concentration, the final” for “proper concentration, and the final”, “0.5%. After 24h incubation, the” for “0.5%. After 24 h incubation, the”, “Cell Viability Assay(Promega, cat #G7573)” for “Cell Viability Assay (Promega, cat #G7573)”

T1 sequence (Q86WV6 whole entry R71H/G230A/H232R/R293Q): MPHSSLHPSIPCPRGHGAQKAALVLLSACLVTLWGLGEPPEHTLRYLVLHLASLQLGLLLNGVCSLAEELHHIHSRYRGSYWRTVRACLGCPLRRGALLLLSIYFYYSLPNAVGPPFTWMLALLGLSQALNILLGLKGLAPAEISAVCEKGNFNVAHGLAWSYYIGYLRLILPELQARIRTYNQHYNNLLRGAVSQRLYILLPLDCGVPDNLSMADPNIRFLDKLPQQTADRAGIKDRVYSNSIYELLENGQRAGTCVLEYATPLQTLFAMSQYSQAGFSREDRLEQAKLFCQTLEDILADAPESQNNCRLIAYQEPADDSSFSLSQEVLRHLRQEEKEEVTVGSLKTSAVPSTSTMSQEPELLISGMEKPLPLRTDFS
T3 sequence (Q86WV6 whole entry R71H/G230A/R293Q): as the sequence (Q86WV6 whole entry R71H/G230A/H232R/R293Q) above, with R232H counted along it

In the case of `CCn1nc(C)cc1C(=O)Nc1nc2cc(C(N)=O)cc3c2n1CC1(CC1)O3` [Example 28, 2-(1-Ethyl-3-methyl-1H-pyrazole-5-carboxamido)-3H-5-oxa-1,2a-diazaspiro[acenaphthylene-4,1′-cyclopropan]-1,2a^1(5a),6,8-tetraene-7-carboxamide], the “hIFNβ ELISA (EC50, μM)” value (STING) is reported as “inactive”, the “Fold change related to DMSO control, WT” value (STING variants (WT) [1]; compound concentration 25 μM) is reported as 2.34 fold and the “Fold change related to DMSO control, HAQ” value (STING variants (HAQ) [2]; compound concentration 25 μM) is reported as 38.16 fold.

In the case of `CCn1nc(C)cc1C(=O)Nc1nc2cc(C(N)=O)cc3c2n1[C@@H](CCCNC(=O)/C=C/c1ccccc1)CO3` [Example 31, (S)-3-(3-Cinnamamidopropyl)-2-(1-ethyl-3-methyl-1H-pyrazole-5-carboxamido)-3,4-dihydro-5-oxa-1,2a-diazaacenaphthylene-7-carboxamide], the “hIFNβ ELISA (EC50, μM)” value (STING) is reported as “inactive”, the “Fold change related to DMSO control, WT” value (STING variants (WT) [1]; compound concentration 25 μM) is reported as 2.71 fold and the “Fold change related to DMSO control, HAQ” value (STING variants (HAQ) [2]; compound concentration 25 μM) is reported as 22.11 fold.

With `CCn1nc(C)cc1C(=O)Nc1nc2cc(C(N)=O)cc3c2n1[C@@H](CCCNC(=O)OCc1cccnc1)CO3` [Example 32, Pyridin-3-ylmethyl (S)-(3-(7-carbamoyl-2-(1-ethyl-3-methyl-1H-pyrazole-5-carboxamido)-3,4-dihydro-5-oxa-1,2a-diazaacenaphthylen-3-yl)propyl)carbamate] the “hIFNβ ELISA (EC50, μM)” value (STING) was “inactive”, the “Fold change related to DMSO control, WT” value (STING variants (WT) [1]; compound concentration 25 μM) was 1.45 fold and the “Fold change related to DMSO control, HAQ” value (STING variants (HAQ) [2]; compound concentration 25 μM) was 2.88 fold.

For `CCn1nc(C)cc1C(=O)Nc1nc2cc(C(N)=O)cc3c2n1[C@@H](CCCNC(=O)COc1ccccc1)CO3` [Example 33, (S)-2-(1-ethyl-3-methyl-1H-pyrazole-5-carboxamido)-3-(3-(2-phenoxyacetamido)propyl)-3,4-dihydro-5-oxa-1,2a-diazaacenaphthylene-7-carboxamide], the “hIFNβ ELISA (EC50, μM)” value (STING) was “inactive”, the “Fold change related to DMSO control, WT” value (STING variants (WT) [1]; compound concentration 25 μM) was 2.49 fold and the “Fold change related to DMSO control, HAQ” value (STING variants (HAQ) [2]; compound concentration 25 μM) was 20.81 fold.

`CCn1nc(C)cc1C(=O)Nc1nc2cc(C(N)=O)cc3c2n1[C@@H](CCCNC(=O)OCc1ccccc1)CN3C` [Example 43, Benzyl (S)-(3-(8-carbamoyl-2-(1-ethyl-3-methyl-1H-pyrazole-5-carbozamido)-6-methyl-5,6-dihydro-4H-imidazo[1,5,4-de]quinoxalin-4-yl)propyl)carbamate] was tested, and the “hIFNβ ELISA (EC50, μM)” value (STING) was “inactive”, the “Fold change related to DMSO control, WT” value (STING variants (WT) [1]; compound concentration 2.5 μM) was 2.02 fold and the “Fold change related to DMSO control, HAQ” value (STING variants (HAQ) [2]; compound concentration 5 μM) was 23.88 fold.

With `CCn1nc(C)c(F)c1C(=O)Nc1nc2cc(C(N)=O)cc3c2n1CC(C)(C)CO3` [Example 44, 1-(1-Ethyl-4-fluoro-3-methyl-1H-pyrazole-5-carboxamido)-8,8-dimethyl-8,9-dihydro-7H-6-oxa-2,9a-diazabenzo[cd]azulene-4-carboxamide] the EC50 (STING) was 19.8 µM, the “Fold change related to DMSO control, WT” value (STING variants (WT) [3]) was 2.48 fold and the “Fold change related to DMSO control, HAQ” value (STING variants (HAQ) [4]) was 15.38 fold.

With `CCn1nc(C)c(Cl)c1C(=O)Nc1nc2cc(C(N)=O)cc3c2n1CC(C)(C)CO3` [Example 45, 1-(4-Chloro-1-ethyl-3-methyl-1H-pyrazole-5-carboxamido)-8,8-dimethyl-8,9-dihydro-7H-6-oxa-2,9a-diazabenzo[cd]azulene-4-carboxamide] the “hIFNβ ELISA (EC50, μM)” value (STING) was “inactive”, the “Fold change related to DMSO control, WT” value (STING variants (WT) [3]) was 1.18 fold and the “Fold change related to DMSO control, HAQ” value (STING variants (HAQ) [4]) was 1.59 fold.

`CCn1nc(C)c(Br)c1C(=O)Nc1nc2cc(C(N)=O)cc3c2n1CC(C)(C)CO3` [Example 46, 1-(4-Bromo-1-ethyl-3-methyl-1H-pyrazole-5-carboxamido)-8,8-dimethyl-8,9-dihydro-7H-6-oxa-2,9a-diazabenzo[cd]azulene-4-carboxamide] was tested, and the EC50 (STING) was over 5.6 µM, the “Fold change related to DMSO control, WT” value (STING variants (WT) [3]) was 1.41 fold and the “Fold change related to DMSO control, HAQ” value (STING variants (HAQ) [4]) was 2.12 fold.

In the case of `CC[C@H]1COc2cc(C(N)=O)cc3nc(NC(=O)c4c(F)c(C)nn4CC)n1c23` [Example 47, (S)-3-Ethyl-2-(1-ethyl-4-fluoro-3-methyl-1H-pyrazole-5-carboxamido)-3,4-dihydro-5-oxa-1,2a-diazaacenaphthylene-7-carboxamide], the EC50 (STING) is reported as over 5.2 µM, the “Fold change related to DMSO control, WT” value (STING variants (WT) [3]) is reported as 6.91 fold and the “Fold change related to DMSO control, HAQ” value (STING variants (HAQ) [4]) is reported as 27.64 fold.

`CC[C@H]1COc2cc(C(N)=O)cc3nc(NC(=O)c4c(Cl)c(C)nn4CC)n1c23` [Example 48, (S)-2-(4-Chloro-1-ethyl-3-methyl-1H-pyrazole-5-carboxamido)-3-ethyl-3,4-dihydro-5-oxa-1,2a-diazaacenaphthylene-7-carboxamide] was tested, and the “hIFNβ ELISA (EC50, μM)” value (STING) was “inactive”, the “Fold change related to DMSO control, WT” value (STING variants (WT) [3]) was 1.85 fold and the “Fold change related to DMSO control, HAQ” value (STING variants (HAQ) [4]) was 3.46 fold.

In the case of `CC[C@H]1COc2cc(C(N)=O)cc3nc(NC(=O)c4c(Br)c(C)nn4CC)n1c23` [Example 49, (S)-2-(4-Bromo-1-ethyl-3-methyl-1H-pyrazole-5-carboxamido)-3-ethyl-3,4-dihydro-5-oxa-1,2a-diazaacenaphthylene-7-carboxamide], the EC50 (STING) is reported as over 2.5 µM, the “Fold change related to DMSO control, WT” value (STING variants (WT) [3]) is reported as 1.49 fold and the “Fold change related to DMSO control, HAQ” value (STING variants (HAQ) [4]) is reported as 1.94 fold.

In the case of `C=CCCCn1nc(C)cc1C(=O)Nc1nc2cc(C(N)=O)cc3c2n1[C@@H](CCCN)CO3` [Example 50, (S)-3-(3-Aminopropyl)-2-(3-methyl-1-(pent-4-en-1-yl)-1H-pyrazole-5-carboxamido)-3,4-dihydro-5-oxa-1,2a-diazaacenaphthylene-7-carboxamide], the “hIFNβ ELISA (EC50, μM)” value (STING) is reported as “inactive”, the “Fold change related to DMSO control, WT” value (STING variants (WT) [3]) is reported as 0.83 fold and the “Fold change related to DMSO control, HAQ” value (STING variants (HAQ) [4]) is reported as 1.27 fold.

With `C=Cc1c(C)nn(CC)c1C(=O)Nc1nc2cc(C(N)=O)cc3c2n1[C@@H](CCCN)CO3` [Example 51, (S)-3-(3-Aminopropyl)-2-(1-ethyl-3-methyl-4-vinyl-1H-pyrazole-5-carboxamido)-3,4-dihydro-5-oxa-1,2a-diazaacenaphthylene-7-carboxamide] the “hIFNβ ELISA (EC50, μM)” value (STING) was “inactive”, the “Fold change related to DMSO control, WT” value (STING variants (WT) [3]) was 0.79 fold and the “Fold change related to DMSO control, HAQ” value (STING variants (HAQ) [4]) was 0.63 fold.

In the case of `CCn1nc(C)cc1C(=O)Nc1nc2cc(C(N)=O)cc3c2n1C[C@@H](CO)O3` [Example 52, (S)-2-(1-ethyl-3-methyl-1H-pyrazole-5-carboxamido)-4-(hydroxymethyl)-3,4-dihydro-5-oxa-1,2a-diazaacenaphthylene-7-carboxamide], the “hIFNβ ELISA (EC50, μM)” value (STING) is reported as “inactive”, the “Fold change related to DMSO control, WT” value (STING variants (WT) [3]) is reported as 0.82 fold and the “Fold change related to DMSO control, HAQ” value (STING variants (HAQ) [4]) is reported as 0.82 fold.
